Measurements: the supplement of paper PMC10307832

Experiments:
Assay in all cases: relative viability (nuclei count vs DMSO), 5 days (fraction); higher = more cells survive
Tipifarnib = compound: Cn1cncc1[C@@](N)(c1ccc(Cl)cc1)c1ccc2c(c1)c(-c1cccc(Cl)c1)cc(=O)n2C [Tipifarnib]
Summary of the method: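 MetaXpress counted nuclei in 4× images of lung cancer cell lines that had been fixed, permeabilised and Hoechst-stained in one step. Before that, cells in 1536-well plates were kept overnight at 37 °C, pinned with five √10-spaced library-drug doses on vehicle-anchored plates, and cultured 5 days without medium change. Viability takes treated-well nuclei over vehicle-well nuclei and uses the median across plates. Plates were accepted only at control CV below 25% and at least one doubling.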

Tipifarnib + Luminespib = compound: Cn1cncc1[C@@](N)(c1ccc(Cl)cc1)c1ccc2c(c1)c(-c1cccc(Cl)c1)cc(=O)n2C [Tipifarnib] + CCNC(=O)c1noc(-c2cc(C(C)C)c(O)cc2O)c1-c1ccc(CN2CCOCC2)cc1 [Luminespib] (partner 0.01 µM)
Summary of the method: (§1)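 Dosing by pin tool came one day after lung cancer cell lines were seeded in 1536-well plates, using either one drug or a fixed anchor-drug dose plus five library-drug doses (not always all listed) in √10 steps. After 5 days, nuclei were counted on 4× images. Relative viability is treated-well nuclei count divided by vehicle-well nuclei count, and values are medians of duplicate plates.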

Tipifarnib + Foretinib = compound: Cn1cncc1[C@@](N)(c1ccc(Cl)cc1)c1ccc2c(c1)c(-c1cccc(Cl)c1)cc(=O)n2C [Tipifarnib] + COc1cc2c(Oc3ccc(NC(=O)C4(C(=O)Nc5ccc(F)cc5)CC4)cc3F)ccnc2cc1OCCCN1CCOCC1 [Foretinib] (partner 0.25 µM)
Summary of the method: as §1

Tipifarnib + OSI-027 = compound: Cn1cncc1[C@@](N)(c1ccc(Cl)cc1)c1ccc2c(c1)c(-c1cccc(Cl)c1)cc(=O)n2C [Tipifarnib] + COc1cccc2cc(-c3nc([C@H]4CC[C@H](C(=O)O)CC4)n4ncnc(N)c34)[nH]c12 [OSI-027] (partner 0.5 µM)
Summary of the method: as §1

Tipifarnib + Tozasertib = compound: Cn1cncc1[C@@](N)(c1ccc(Cl)cc1)c1ccc2c(c1)c(-c1cccc(Cl)c1)cc(=O)n2C [Tipifarnib] + Cc1cc(Nc2cc(N3CCN(C)CC3)nc(Sc3ccc(NC(=O)C4CC4)cc3)n2)n[nH]1 [Tozasertib] (partner 0.1 µM)
Summary of the method: as §1

Tipifarnib + Dasatinib = compound: Cn1cncc1[C@@](N)(c1ccc(Cl)cc1)c1ccc2c(c1)c(-c1cccc(Cl)c1)cc(=O)n2C [Tipifarnib] + Cc1nc(Nc2ncc(C(=O)Nc3c(C)cccc3Cl)s2)cc(N2CCN(CCO)CC2)n1 [Dasatinib] (partner 0.075 µM)
Summary of the method: as §1

Tipifarnib + Phenformin = compound: Cn1cncc1[C@@](N)(c1ccc(Cl)cc1)c1ccc2c(c1)c(-c1cccc(Cl)c1)cc(=O)n2C [Tipifarnib] + N=C(N)NC(=N)NCCc1ccccc1 [Phenformin] (partner 250 µM)
Summary of the method: as §1

Tipifarnib + Trametinib = compound: Cn1cncc1[C@@](N)(c1ccc(Cl)cc1)c1ccc2c(c1)c(-c1cccc(Cl)c1)cc(=O)n2C [Tipifarnib] + CC(=O)Nc1cccc(-n2c(=O)n(C3CC3)c(=O)c3c(Nc4ccc(I)cc4F)n(C)c(=O)c(C)c32)c1 [Trametinib] (partner 0.02 µM)
Summary of the method: as §1

Tipifarnib + Palbociclib = compound: Cn1cncc1[C@@](N)(c1ccc(Cl)cc1)c1ccc2c(c1)c(-c1cccc(Cl)c1)cc(=O)n2C [Tipifarnib] + CC(=O)c1c(C)c2cnc(Nc3ccc(N4CCNCC4)cn3)nc2n(C2CCCC2)c1=O [Palbociclib] (partner 0.5 µM)
Summary of the method: as §1

Tipifarnib + AZD7762 = compound: Cn1cncc1[C@@](N)(c1ccc(Cl)cc1)c1ccc2c(c1)c(-c1cccc(Cl)c1)cc(=O)n2C [Tipifarnib] + NC(=O)Nc1cc(-c2cccc(F)c2)sc1C(=O)N[C@H]1CCCNC1 [AZD7762] (partner 0.2 µM)
Summary of the method: as §1

Tipifarnib + Pemetrexed = compound: Cn1cncc1[C@@](N)(c1ccc(Cl)cc1)c1ccc2c(c1)c(-c1cccc(Cl)c1)cc(=O)n2C [Tipifarnib] + Nc1nc2[nH]cc(CCc3ccc(C(=O)N[C@@H](CCC(=O)O)C(=O)O)cc3)c2c(=O)[nH]1 [Pemetrexed] (partner 0.2 µM)
Summary of the method: as §1

Tipifarnib + Decitabine = compound: Cn1cncc1[C@@](N)(c1ccc(Cl)cc1)c1ccc2c(c1)c(-c1cccc(Cl)c1)cc(=O)n2C [Tipifarnib] + Nc1ncn([C@H]2C[C@H](O)[C@@H](CO)O2)c(=O)n1 [Decitabine] (partner 2 µM)
Summary of the method: as §1

Tipifarnib + Vorinostat = compound: Cn1cncc1[C@@](N)(c1ccc(Cl)cc1)c1ccc2c(c1)c(-c1cccc(Cl)c1)cc(=O)n2C [Tipifarnib] + O=C(CCCCCCC(=O)Nc1ccccc1)NO [Vorinostat] (partner 1 µM)
Summary of the method: as §1

Tipifarnib + Olaparib = compound: Cn1cncc1[C@@](N)(c1ccc(Cl)cc1)c1ccc2c(c1)c(-c1cccc(Cl)c1)cc(=O)n2C [Tipifarnib] + O=C(c1cc(Cc2n[nH]c(=O)c3ccccc23)ccc1F)N1CCN(C(=O)C2CC2)CC1 [Olaparib] (partner 8 µM)
Summary of the method: as §1

NCI-H1623
relative viability (Tipifarnib; 0.01 µM): 1.07
relative viability (Tipifarnib; 0.03162 µM): 1.12
relative viability (Tipifarnib; 0.1 µM): 0.946
relative viability (Tipifarnib; 0.3162 µM): 0.886
relative viability (Tipifarnib; 1 µM): 0.818
relative viability (Tipifarnib + Luminespib; first compound 0.01 µM): 0.647
relative viability (Tipifarnib + Luminespib; first compound 0.03162 µM): 0.37
relative viability (Tipifarnib + Luminespib; first compound 0.1 µM): 0.411
relative viability (Tipifarnib + Luminespib; first compound 0.3162 µM): 0.412
relative viability (Tipifarnib + Luminespib; first compound 1 µM): 0.325
relative viability (Tipifarnib + Foretinib; first compound 0.01 µM): 0.904
relative viability (Tipifarnib + Foretinib; first compound 0.03162 µM): 0.954
relative viability (Tipifarnib + Foretinib; first compound 0.1 µM): 0.911
relative viability (Tipifarnib + Foretinib; first compound 0.3162 µM): 0.765
relative viability (Tipifarnib + Foretinib; first compound 1 µM): 0.587
relative viability (Tipifarnib + OSI-027; first compound 0.01 µM): 0.4
relative viability (Tipifarnib + OSI-027; first compound 0.03162 µM): 0.426
relative viability (Tipifarnib + OSI-027; first compound 0.1 µM): 0.418
relative viability (Tipifarnib + OSI-027; first compound 0.3162 µM): 0.361
relative viability (Tipifarnib + OSI-027; first compound 1 µM): 0.319
relative viability (Tipifarnib + Tozasertib; first compound 0.01 µM): 0.427
relative viability (Tipifarnib + Tozasertib; first compound 0.03162 µM): 0.39
relative viability (Tipifarnib + Tozasertib; first compound 0.1 µM): 0.441
relative viability (Tipifarnib + Tozasertib; first compound 0.3162 µM): 0.413
relative viability (Tipifarnib + Tozasertib; first compound 1 µM): 0.368
relative viability (Tipifarnib + Dasatinib; first compound 0.01 µM): 0.547
relative viability (Tipifarnib + Dasatinib; first compound 0.03162 µM): 0.493
relative viability (Tipifarnib + Dasatinib; first compound 0.1 µM): 0.551
relative viability (Tipifarnib + Dasatinib; first compound 0.3162 µM): 0.583
relative viability (Tipifarnib + Dasatinib; first compound 1 µM): 0.293
relative viability (Tipifarnib + Phenformin; first compound 0.01 µM): 0.603
relative viability (Tipifarnib + Phenformin; first compound 0.03162 µM): 0.556
relative viability (Tipifarnib + Phenformin; first compound 0.1 µM): 0.553
relative viability (Tipifarnib + Phenformin; first compound 0.3162 µM): 0.565
relative viability (Tipifarnib + Phenformin; first compound 1 µM): 0.374

SW 900
relative viability (Tipifarnib; 0.01 µM): 0.697
relative viability (Tipifarnib; 0.03162 µM): 0.282
relative viability (Tipifarnib; 0.1 µM): 0.486
relative viability (Tipifarnib; 0.3162 µM): 0.338
relative viability (Tipifarnib; 1 µM): 0.272
relative viability (Tipifarnib + Trametinib; first compound 0.01 µM): 0.517
relative viability (Tipifarnib + Trametinib; first compound 0.03162 µM): 0.465
relative viability (Tipifarnib + Trametinib; first compound 0.1 µM): 0.489
relative viability (Tipifarnib + Trametinib; first compound 0.3162 µM): 0.478
relative viability (Tipifarnib + Trametinib; first compound 1 µM): 0.332
relative viability (Tipifarnib + Palbociclib; first compound 0.01 µM): 0.454
relative viability (Tipifarnib + Palbociclib; first compound 0.03162 µM): 0.415
relative viability (Tipifarnib + Palbociclib; first compound 0.1 µM): 0.347
relative viability (Tipifarnib + Palbociclib; first compound 0.3162 µM): 0.332
relative viability (Tipifarnib + Palbociclib; first compound 1 µM): 0.354
relative viability (Tipifarnib + Luminespib; first compound 0.01 µM): 0.188
relative viability (Tipifarnib + Luminespib; first compound 0.03162 µM): 0.188
relative viability (Tipifarnib + Luminespib; first compound 0.1 µM): 0.196
relative viability (Tipifarnib + Luminespib; first compound 0.3162 µM): 0.167
relative viability (Tipifarnib + Luminespib; first compound 1 µM): 0.185
relative viability (Tipifarnib + Foretinib; first compound 0.01 µM): 0.716
relative viability (Tipifarnib + Foretinib; first compound 0.03162 µM): 0.481
relative viability (Tipifarnib + Foretinib; first compound 0.1 µM): 0.381
relative viability (Tipifarnib + Foretinib; first compound 0.3162 µM): 0.39
relative viability (Tipifarnib + Foretinib; first compound 1 µM): 0.412
relative viability (Tipifarnib + OSI-027; first compound 0.01 µM): 0.309
relative viability (Tipifarnib + OSI-027; first compound 0.03162 µM): 0.1
relative viability (Tipifarnib + OSI-027; first compound 0.1 µM): 0.27
relative viability (Tipifarnib + OSI-027; first compound 0.3162 µM): 0.189
relative viability (Tipifarnib + OSI-027; first compound 1 µM): 0.18
relative viability (Tipifarnib + Tozasertib; first compound 0.01 µM): 0.335
relative viability (Tipifarnib + Tozasertib; first compound 0.03162 µM): 0.261
relative viability (Tipifarnib + Tozasertib; first compound 0.1 µM): 0.289
relative viability (Tipifarnib + Tozasertib; first compound 0.3162 µM): 0.31
relative viability (Tipifarnib + Tozasertib; first compound 1 µM): 0.273
relative viability (Tipifarnib + Dasatinib; first compound 0.01 µM): 0.476
relative viability (Tipifarnib + Dasatinib; first compound 0.03162 µM): 0.289
relative viability (Tipifarnib + Dasatinib; first compound 0.1 µM): 0.269
relative viability (Tipifarnib + Dasatinib; first compound 0.3162 µM): 0.158
relative viability (Tipifarnib + Dasatinib; first compound 1 µM): 0.289
relative viability (Tipifarnib + Phenformin; first compound 0.01 µM): 0.405
relative viability (Tipifarnib + Phenformin; first compound 0.03162 µM): 0.216
relative viability (Tipifarnib + Phenformin; first compound 0.1 µM): 0.365
relative viability (Tipifarnib + Phenformin; first compound 0.3162 µM): 0.244
relative viability (Tipifarnib + Phenformin; first compound 1 µM): 0.207
relative viability (Tipifarnib + AZD7762; first compound 0.01 µM): 0.464
relative viability (Tipifarnib + AZD7762; first compound 0.03162 µM): 0.372
relative viability (Tipifarnib + AZD7762; first compound 0.1 µM): 0.331
relative viability (Tipifarnib + AZD7762; first compound 0.3162 µM): 0.292
relative viability (Tipifarnib + AZD7762; first compound 1 µM): 0.259
relative viability (Tipifarnib + Pemetrexed; first compound 0.01 µM): 0.397
relative viability (Tipifarnib + Pemetrexed; first compound 0.03162 µM): 0.272
relative viability (Tipifarnib + Pemetrexed; first compound 0.1 µM): 0.455
relative viability (Tipifarnib + Pemetrexed; first compound 0.3162 µM): 0.303
relative viability (Tipifarnib + Pemetrexed; first compound 1 µM): 0.299
relative viability (Tipifarnib + Decitabine; first compound 0.01 µM): 0.387
relative viability (Tipifarnib + Decitabine; first compound 0.03162 µM): 0.39
relative viability (Tipifarnib + Decitabine; first compound 0.1 µM): 0.294
relative viability (Tipifarnib + Decitabine; first compound 0.3162 µM): 0.368
relative viability (Tipifarnib + Decitabine; first compound 1 µM): 0.402
relative viability (Tipifarnib + Vorinostat; first compound 0.01 µM): 0.435
relative viability (Tipifarnib + Vorinostat; first compound 0.03162 µM): 0.144
relative viability (Tipifarnib + Vorinostat; first compound 0.1 µM): 0.278
relative viability (Tipifarnib + Vorinostat; first compound 0.3162 µM): 0.227
relative viability (Tipifarnib + Vorinostat; first compound 1 µM): 0.187
relative viability (Tipifarnib + Olaparib; first compound 0.01 µM): 0.508
relative viability (Tipifarnib + Olaparib; first compound 0.03162 µM): 0.545
relative viability (Tipifarnib + Olaparib; first compound 0.1 µM): 0.494
relative viability (Tipifarnib + Olaparib; first compound 0.3162 µM): 0.406
relative viability (Tipifarnib + Olaparib; first compound 1 µM): 0.381
